The text below walks through data of patent publication US12480846B2, “Multi-mode separation for target detection and cell growth monitoring” (THE REGENTS OF THE UNIVERSITY OF MICHIGAN, priority 2012, dated 2025).

In the experiment the test system is E. coli O157:H7. Description: Solid-interface AMBR biosensor measurement of bacterial growth in 384 well plate. It is filed as cell-based. The conditions noted are these: antibiotic above the MIC in the surrounding media, 0.5 μg/ml gentamicin. The text has this:
In previous AMBR applications at air-water and/or oil-water interfaces, the rotation period of the sensor slows down in response to bacterial growth; however, on solid interfaces there is an additional “dip” in the beginning of the data. Typical results for measuring bacterial growth, using the solid interface AMBR method are shown in FIG. 11, where the initial speeding up and then slowing down can be seen. […] This is true since the dip (or the slowing down) was not seen in wells with the same amount of bacteria, but that lacked nutrients (performed in PBS buffer), or contained antibiotics above the minimum inhibition concentrations.
Laboratory measurements have established that the speeding up happens with motile and non-motile, gram-negative and gram-positive cells, and with rod-like and coccal bacteria. […]
Anti-E. coli O157 functionalized, 2.8 μm diameter magnetic particles (20 μl, Invitrogen 710-03) were mixed with bacteria diluted to 10^4 CFU/ml (0.9 ml), and allowed to incubate (10 min at 37° C.) with end-over-end agitation. […] For colony counting, the samples were diluted appropriately, plated on a MH plate and the colonies were counted 18 hours later to obtain accurate bacterial concentrations and magnetic separation capture efficiencies. […]

For the substance gentamicin, the “change in rotational period of AMBR biosensor (bacterial growth response)” value is “no change in rotational period”.
